Measured values from patent US4568691A, “Anti-inflammatory esters of 4-(1-hydroxy-2-[(acylamino)-alkylamino]-ethyl)-phenol derivatives, compositions, and method of use therefor” (Imperial Chemical Industries, PLC, priority 1981, dated 1986).

How the values were obtained:
[1] = system: croton oil induced inflammation on the mouse ear; assay: effect of repeated topical application on anti-inflammatory properties in the croton oil induced inflammation test; type: in vivo, albino mouse (Alderley Park Strain); conditions: single application immediately after croton oil; rate approximately 4 × IC50
[2] = system: croton oil induced inflammation on the mouse ear; assay: croton oil induced inflammation test on the mouse ear, single topical application; type: in vivo, albino mouse (Alderley Park Strain); conditions: 4 hours after croton oil
Protocol: A 4% v/v solution of croton oil in (acetone) was prepared. A portion (10 μl.) of this solution was applied to the right ear of an albino mouse (Alderley Park Strain, specific pathogen free). This was followed by immediate application of a portion (10 μl.) of a solution of test compound in ethanol to the same ear of the mouse. This procedure was repeated for a total of ten mice.
After 4 hours the mice were sacrificed and both ears from each mouse were removed and weighed. The increase in weight of the right over the left ear for each mouse was then determined and an average obtained for the group as a whole. […] The percentage inhibition of croton oil induced inflammation was then calculated for the test compound.

[3] = system: croton oil induced inflammation on the mouse ear; assay: effect of repeated topical application on anti-inflammatory properties in the croton oil induced inflammation test; type: in vivo, albino mouse (Alderley Park Strain); conditions: for Percentage reduction in croton oil induced inflammation, Four Applns: four applications (3, 2, 1 day before and immediately after croton oil), rate approximately 4 × IC50
Source text: (b) An indication of the effect of repeated topical application of a test compound on its anti-inflammatory properties was obtained as follows:
first application received 3 days before croton oil;
second application received 2 days before croton oil;
third application received 1 day before croton oil; and
fourth application received immediately after croton oil.

[4] = system: croton oil induced inflammation on the mouse ear; conditions: known from earlier patent publications (UK 1591618); cited from earlier work

SMILES: CC(C)(CNC(=O)c1cc(Cl)ccn1)NCC(O)c1ccc(OC(=O)C(C)(C)C)c(OC(=O)C(C)(C)C)c1 (centres unmarked) [4-chloro-2-pyridyl]
- Percentage reduction in croton oil induced inflammation, Single Appln [1]: 68%
- IC50 (amount of test compound per ear which inhibited the inflammation by 50%) [2]: 7 μg/ear
- Percentage reduction in croton oil induced inflammation, Four Applns [3]: 33%

SMILES: CC(C)(CNC(=O)c1cccs1)NCC(O)c1ccc(OC(=O)C(C)(C)C)c(OC(=O)C(C)(C)C)c1 (centres unmarked) [Example 2-thienyl]
- Percentage reduction in croton oil induced inflammation, Single Appln [1]: 71%
- IC50 (amount of test compound per ear which inhibited the inflammation by 50%) [2]: 7 μg/ear
- Percentage reduction in croton oil induced inflammation, Four Applns [3]: 33%

SMILES: CC(C)(CNC(=O)c1ccoc1)NCC(O)c1ccc(OC(=O)C(C)(C)C)c(OC(=O)C(C)(C)C)c1 (centres unmarked) [Example 3-furyl]
- Percentage reduction in croton oil induced inflammation, Single Appln [1]: 65%
- IC50 (amount of test compound per ear which inhibited the inflammation by 50%) [2]: 2 μg/ear
- Percentage reduction in croton oil induced inflammation, Four Applns [3]: 45%

SMILES: CC(C)(CNC(=O)c1ccco1)NCC(O)c1ccc(OC(=O)C(C)(C)C)c(OC(=O)C(C)(C)C)c1 (centres unmarked) [Example 7, 4-(1-hydroxy-2-[2-(2-furylcarboxyamido)-1,1-dimethyl-ethylamino]ethyl)catechol dipivaloyl ester]
- Percentage reduction in croton oil induced inflammation, Single Appln [1]: 60%
- IC50 (amount of test compound per ear which inhibited the inflammation by 50%) [2]: 13 μg/ear
- Percentage reduction in croton oil induced inflammation, Four Applns [3]: 64%

SMILES: CC(C)(CNC(=O)c1cc2ccccc2o1)NCC(O)c1ccc(OC(=O)C(C)(C)C)c(OC(=O)C(C)(C)C)c1 (centres unmarked) [Example 8, 4-(1-hydroxy-2-[1,1-dimethyl-2-(2-benzo[b]furyl-carboxamido)ethylamino]ethyl)catechol dipivaloyl ester]
- Percentage reduction in croton oil induced inflammation, Single Appln [1]: 61%
- IC50 (amount of test compound per ear which inhibited the inflammation by 50%) [2]: 11 μg/ear
- Percentage reduction in croton oil induced inflammation, Four Applns [3]: 59%

SMILES: CC(C)(CNC(=O)c1cc2ccccc2s1)NCC(O)c1ccc(OC(=O)C(C)(C)C)c(OC(=O)C(C)(C)C)c1 (centres unmarked) [Example 9, 4-(1-hydroxy-2-[1,1-dimethyl-2-(2-benzo[b]thienylcarboxamido)ethylamino]ethyl)catechol dipivaloyl ester]
- Percentage reduction in croton oil induced inflammation, Single Appln [1]: 64%
- IC50 (amount of test compound per ear which inhibited the inflammation by 50%) [2]: 23 μg/ear
- Percentage reduction in croton oil induced inflammation, Four Applns [3]: 65%

SMILES: CC(C)(CNCC(O)c1ccc(OC(=O)C(C)(C)C)c(OC(=O)C(C)(C)C)c1)NC(=O)COc1ccccc1 (centres unmarked) [phenoxymethyl, 4-(1-hydroxy-2-[2-methyl-2-(phenoxyacetamido)-propylamino]ethyl)catechol dipivaloyl ester]
- Percentage reduction in croton oil induced inflammation, Single Appln [1]: 60%
- IC50 (amount of test compound per ear which inhibited the inflammation by 50%) [2]: 2.5 μg/ear
- Percentage reduction in croton oil induced inflammation, Four Applns [3]: 23%
- reduction in topical anti-inflammatory properties after repeated topical applications ([3]; two or more / several topical applications spaced over several days): significant reduction in topical anti-inflammatory properties
- topical anti-inflammatory properties [4]: potent topical anti-inflammatory properties
